The values below come from patent publication US20260199483A1 (Bright Angel Therapeutics Inc., priority 2022, published 2026).

Converted amounts (≈) assume the structure as drawn.

By IC50 is commonly meant the concentration that inhibits the measured activity by half. As a reminder, the MIC50 is an inhibitory concentration at the 50% level, which refers to growth in some studies and to a panel of isolates in others.

For data set [1], the target named is T1, purified recombinant Yck2 (Candida albicans, UniProt A0A1D8PKB4).
T1 construct: Yck2 residues 37-345 were PCR amplified from C. albicans genomic DNA; His6 (N); TEV protease site (N); made in house; host or cells: E. coli BL21(DE3)-Gold
As to the kind of experiment: HotSpot kinase assay. The format is biochemical, C. albicans. The method, then: IC50s were determined using the in vitro HotSpot kinase assay (purified enzymes, ^33P-ATP, an appropriate substrate and 1 μM ATP). For enzyme inhibition assays, compounds were tested in range of ten concentrations from 10 uM to 0.0005 uM using purified recombinant Yck2. Reaction conditions were 1 uM ATP, one hour incubation with inhibitor, and kinase activity detected using 33-ATP phosphorylation of an appropriately selected peptide substrate.
Yck2 residues 37-345 were PCR amplified from C. albicans genomic DNA and subcloned into the vector pMCSG53, which codes for a N-terminal His6 tag, TEV protease site, followed by the Yck2 protein. E. coli BL21(DE3)-Gold competent cells were transformed with this plasmid and the Yck2 protein was purified using methodology previously described (Stogios et al., ACS Chem. Biol. 13, 1322-1332 (2018)).

Another data set has as its system CaCi2. As to the kind of experiment: Antifungal sensitivity testing (broth microdilution MIC). The format is cell-based. The note with it: CaCi2, 96-well broth microdilution, compounds in DMSO. On the procedure: Minimum inhibitory concentrations (MICs) were determined in flat bottom, 96-well plate format using a modified broth microdilution protocol as previously described (Singh et al., PLoS Pathog. 5, e1000532 (2009); LaFayette et al., PLoS Pathog. 6, 79-80 (2010)). Compounds were formulated in dimethyl sulfoxide (DMSO, Sigma-Aldrich Co.). Each compound was tested in duplicate in at least two independent experiments.

Data set [2] in a line: Mammalian cell toxicity (Cell Titer-Glo). The format is cell-based. The note with it: human; HepG2 cells, 48 h incubation, Cell Titer-Glo luminescence. On the procedure: HepG2 cells were seeded overnight at 500 cells/well in 384-well plate, then incubated with compounds (10-point concentration titration) for 48 h. Cell Titer-Glo® reagent ([…]) was added to each well and after 10-minute incubation at room temperature the luminescent signal was measured using an Envision plate reader (Perkin Elmer).
(ATP-based viability assays read luminescence as a measure of living cells.)

T1 sequence (A0A1D8PKB4 entry or part of it): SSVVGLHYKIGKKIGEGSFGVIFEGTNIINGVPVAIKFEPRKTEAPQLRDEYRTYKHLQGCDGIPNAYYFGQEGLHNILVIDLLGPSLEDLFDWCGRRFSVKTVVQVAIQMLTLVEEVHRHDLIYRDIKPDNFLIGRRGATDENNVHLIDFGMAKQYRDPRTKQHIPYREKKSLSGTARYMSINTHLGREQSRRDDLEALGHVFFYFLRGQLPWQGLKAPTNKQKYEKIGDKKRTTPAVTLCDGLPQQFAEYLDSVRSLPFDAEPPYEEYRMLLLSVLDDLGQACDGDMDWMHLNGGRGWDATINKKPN

Take `O=C(NC[C@@](O)(Cn1cncn1)c1ccc(F)cc1F)c1ccc2c(-c3ccncc3)c(-c3ccc(F)cc3)nn2c1` [Compound I-117, (R)-N-(2-(2,4-difluorophenyl)-2-hydroxy-3-(1H-1,2,4-triazol-1-yl)propyl)-2-(4-fluorophenyl)-3-(pyridin-4-yl)pyrazolo[1,5-a]pyridine-6-carboxamide]: in data set [1], the IC50 was determined as 5.08 nM. For the same compound, the MIC50 in the data set with CaCi2 is 0.195 µM (≈ 0.111 µg/mL).

The compound `Cn1cc(-c2ccncc2COC(=O)NC2CCN(CC(O)(Cn3cncn3)c3ccc(F)cc3F)CC2)c(-c2ccc(F)cc2)n1` (stereo not shown) [Compound I-244, (4-(3-(4-fluorophenyl)-1-methyl-1H-pyrazol-4-yl)pyridin-3-yl)methyl (1-(2-(2,4-difluorophenyl)-2-hydroxy-3-(1H-1,2,4-triazol-1-yl)propyl)piperidin-4-yl)carbamate] showed an IC50 at 48 h in data set [2] of 18.4 µM.

As to `OC(CN1CCC(Oc2cccc3c(-c4ccncc4)c(-c4ccc(F)cc4)nn23)CC1)(Cn1cncn1)c1ccc(F)cc1F` (stereo not shown) [Compound I-154, 2-(2,4-difluorophenyl)-1-(4-((2-(4-fluorophenyl)-3-(pyridin-4-yl)pyrazolo[1,5-a]pyridin-7-yl)oxy)piperidin-1-yl)-3-(1H-1,2,4-triazol-1-yl)propan-2-ol], the IC50 in data set [1] came to 176 nM. Moreover, the MIC50 in the data set on CaCi2 worked out at 0.195 µM (≈ 0.122 µg/mL).

Take `Cn1cc(-c2ccnc3c2C(=O)N(CC2CCN(CC(O)(Cn4cncn4)c4ccc(F)cc4F)CC2)C3)c(-c2ccc(F)cc2)n1` (stereo not shown) [Compound I-230, 6-((1-(2-(2,4-difluorophenyl)-2-hydroxy-3-(1H-1,2,4-triazol-1-yl)propyl)piperidin-4-yl)methyl)-4-(3-(4-fluorophenyl)-1-methyl-1H-pyrazol-4-yl)-6,7-dihydro-5H-pyrrolo[3,4-b]pyridin-5-one]: the IC50 in data set [1] was determined as 2.93 nM. In the data set with CaCi2, this compound had an MIC50 of 1.88 µM (≈ 1.21 µg/mL).

Take `Cn1cc(-c2ccnc3c2C(=O)N(CC2CCN(CC(=O)OC(Cn4cncn4)(Cn4cncn4)c4ccc(F)cc4F)CC2)C3)c(-c2ccc(F)cc2)n1` [Compound I-249, 2-(2,4-difluorophenyl)-1,3-di(1H-1,2,4-triazol-1-yl)propan-2-yl 2-(4-((4-(3-(4-fluorophenyl)-1-methyl-1H-pyrazol-4-yl)-5-oxo-5,7-dihydro-6H-pyrrolo[3,4-b]pyridin-6-yl)methyl)piperidin-1-yl)acetate]: the IC50 at 48 h in data set [2] is over 50 µM.

Turning to `O=C(NCCC(O)(Cn1cncn1)c1ccc(F)cc1F)c1ccc2c(-c3ccncc3)c(-c3ccc(F)cc3)nn2c1` (stereo not shown) [Compound I-148, N-(3-(2,4-difluorophenyl)-3-hydroxy-4-(1H-1,2,4-triazol-1-yl)butyl)-2-(4-fluorophenyl)-3-(pyridin-4-yl)pyrazolo[1,5-a]pyridine-6-carboxamide], the IC50 in data set [1] was found to be 1.61 nM. Further, the MIC50 in the data set on CaCi2 is 6.25 µM (≈ 3.65 µg/mL).

In the case of `Cn1cc(-c2ccncc2COC2CCN(CC(O)(Cn3cncn3)c3ccc(F)cc3F)CC2)c(-c2ccc(F)cc2)n1` (stereo not shown) [Compound I-90, 2-(2,4-difluorophenyl)-1-(4-((4-(3-(4-fluorophenyl)-1-methyl-1H-pyrazol-4-yl)pyridin-3-yl)methoxy)piperidin-1-yl)-3-(1H-1,2,4-triazol-1-yl)propan-2-ol], the IC50 in data set [1] worked out at 47.6 nM. The MIC50 against CaCi2 came out at 0.586 µM (≈ 0.354 µg/mL).

`O=C(NC1CCN(CC(O)(Cn2cncn2)c2ccc(F)cc2F)CC1)c1ccc2c(-c3ccncc3)c(-c3ccc(F)cc3)nn2c1` (stereo not shown) [Compound I-100, N-(1-(2-(2,4-difluorophenyl)-2-hydroxy-3-(1H-1,2,4-triazol-1-yl)propyl)piperidin-4-yl)-2-(4-fluorophenyl)-3-(pyridin-4-yl)pyrazolo[1,5-a]pyridine-6-carboxamide]: in data set [1], the IC50 was found to be 32.9 nM. For the same compound, the MIC50 against CaCi2 worked out at 0.0651 µM (≈ 0.0425 µg/mL).

`OC(COc1cccc2c(-c3ccncc3)c(-c3ccc(F)cc3)nn12)(Cn1cncn1)c1ccc(F)cc1F` (stereo not shown) [Compound I-139, 2-(2,4-difluorophenyl)-1-((2-(4-fluorophenyl)-3-(pyridin-4-yl)pyrazolo[1,5-a]pyridin-7-yl)oxy)-3-(1H-1,2,4-triazol-1-yl)propan-2-ol]: the IC50 at 48 h in data set [2] was over 20 µM.

For the compound `OC(Cn1cncn1)(c1ccc(F)cc1F)C(F)(F)c1ccc(C#Cc2ccc(CNCc3ccc4c(-c5ccncc5)c(-c5ccc(F)cc5)nn4c3)cc2)cn1` (stereo not shown) [Compound I-267, 2-(2,4-difluorophenyl)-1,1-difluoro-1-(5-((4-((((2-(4-fluorophenyl)-3-(pyridin-4-yl)pyrazolo[1,5-a]pyridin-6-yl)methyl)amino)methyl)phenyl)ethynyl)pyridin-2-yl)-3-(1H-1,2,4-triazol-1-yl)propan-2-ol], the IC50 at 48 h in data set [2] stood at 8.03 µM.

In the case of `O=C(NC[C@](O)(Cn1cncn1)c1ccc(F)cc1F)c1ccc2c(-c3ccncc3)c(-c3ccc(F)cc3)nn2c1` [Compound I-116, (S)-N-(2-(2,4-difluorophenyl)-2-hydroxy-3-(1H-1,2,4-triazol-1-yl)propyl)-2-(4-fluorophenyl)-3-(pyridin-4-yl)pyrazolo[1,5-a]pyridine-6-carboxamide], in data set [1], the IC50 was 7.91 nM. The MIC50 with CaCi2 is 6.25 µM (≈ 3.56 µg/mL).

Regarding `Cn1cc(-c2ccncc2COCC[C@@](O)(Cn2cncn2)c2ccc(F)cc2F)c(-c2ccc(F)cc2)n1` [Compound I-236, (S)-2-(2,4-difluorophenyl)-4-((4-(3-(4-fluorophenyl)-1-methyl-1H-pyrazol-4-yl)pyridin-3-yl)methoxy)-1-(1H-1,2,4-triazol-1-yl)butan-2-ol], the IC50 in data set [1] was determined as 169 nM. Further, the MIC50 in the data set with CaCi2 turned out to be 2.34 µM (≈ 1.25 µg/mL).

`Nc1nccc(-c2c(-c3ccc(F)cc3)ncn2C2CCN(CCCC(O)(Cn3cncn3)c3ccc(F)cc3F)CC2)n1` (stereo not shown) [Compound I-58, 5-(4-(5-(2-aminopyrimidin-4-yl)-4-(4-fluorophenyl)-1H-imidazol-1-yl)piperidin-1-yl)-2-(2,4-difluorophenyl)-1-(1H-1,2,4-triazol-1-yl)pentan-2-ol]: in data set [1], the IC50 was found to be 3.19 nM. The MIC50 in the data set on CaCi2 was over 25 µM.

Turning to `Nc1nccc(-c2c(-c3ccc(F)cc3)ncn2C2CCN(C3CCN(CC(O)(Cn4cncn4)c4ccc(F)cc4F)CC3)CC2)n1` (stereo not shown) [Compound I-224], the IC50 in data set [1] worked out at 72.3 nM. Besides, in the data set on CaCi2, the MIC50 is 25 µM (≈ 16.5 µg/mL).

Turning to `OC(Cn1cnnn1)(c1ccc(F)cc1F)C(F)(F)c1ccc(-c2ccc(CNCc3ccc4c(-c5ccncc5)c(-c5ccc(F)cc5)nn4c3)cc2)cn1` (stereo not shown) [Compound I-269, 2-(2,4-difluorophenyl)-1,1-difluoro-1-(5-(4-((((2-(4-fluorophenyl)-3-(pyridin-4-yl)pyrazolo[1,5-a]pyridin-6-yl)methyl)amino)methyl)phenyl)pyridin-2-yl)-3-(1H-tetrazol-1-yl)propan-2-ol], the IC50 at 48 h in data set [2] is 3.67 µM.

For `O[C@@](CNCc1ccc2c(-c3ccncc3)c(-c3ccc(F)cc3)nn2c1)(Cn1cncn1)c1ccc(F)cc1F` [Compound I-253, (S)-2-(2,4-difluorophenyl)-1-(((2-(4-fluorophenyl)-3-(pyridin-4-yl)pyrazolo[1,5-a]pyridin-6-yl)methyl)amino)-3-(1H-1,2,4-triazol-1-yl)propan-2-ol], the IC50 in data set [1] came out at 5.95 nM. This compound had an MIC50 against CaCi2 of 0.137 µM (≈ 0.0761 µg/mL).

`Nc1nccc(-c2c(-c3ccc(F)cc3)ncn2C2CCN(CC(O)(Cn3cncn3)c3ccc(F)cc3F)CC2)n1` (stereo not shown) [Compound I-32, 1-(4-(5-(2-aminopyrimidin-4-yl)-4-(4-fluorophenyl)-1H-imidazol-1-yl)piperidin-1-yl)-2-(2,4-difluorophenyl)-3-(1H-1,2,4-triazol-1-yl)propan-2-ol] registered an MIC50 with CaCi2 of over 50 µM.

Consider `Cn1cc(-c2ccnc3c2C(=O)N(CC2CCN(C[C@](O)(Cn4cncn4)c4ccc(F)cc4F)CC2)C3)c(-c2ccc(F)cc2)n1` [Compound I-238, (S)-6-((1-(2-(2,4-difluorophenyl)-2-hydroxy-3-(1H-1,2,4-triazol-1-yl)propyl)piperidin-4-yl)methyl)-4-(3-(4-fluorophenyl)-1-methyl-1H-pyrazol-4-yl)-6,7-dihydro-5H-pyrrolo[3,4-b]pyridin-5-one], for which the IC50 in data set [1] worked out at 7.84 nM. The compound further returned an MIC50 in the data set with CaCi2 of 0.781 µM (≈ 0.502 µg/mL).

For `Nc1nccc(-c2c(-c3ccc(F)cc3)ncn2C2CCN(CCCn3c4c(c5cc(Cl)ccc53)CCNC4)CC2)n1` [Compound I-232, 4-(1-(1-(3-(6-chloro-1,2,3,4-tetrahydro-9H-pyrido[3,4-b]indol-9-yl)propyl)piperidin-4-yl)-4-(4-fluorophenyl)-1H-imidazol-5-yl)pyrimidin-2-amine], in data set [1], the IC50 came out at 2.61 nM. In the data set on CaCi2, the MIC50 is over 25 µM.

In the case of `O=C(NCC1CCN(CC(O)(Cn2cncn2)c2ccc(F)cc2F)CC1)c1ccc2c(-c3ccncc3)c(-c3ccc(F)cc3)nn2c1` (stereo not shown) [Compound I-147, N-((1-(2-(2,4-difluorophenyl)-2-hydroxy-3-(1H-1,2,4-triazol-1-yl)propyl)piperidin-4-yl)methyl)-2-(4-fluorophenyl)-3-(pyridin-4-yl)pyrazolo[1,5-a]pyridine-6-carboxamide], the IC50 in data set [1] amounted to 36.8 nM. Further, the MIC50 in the data set on CaCi2 amounted to 0.0977 µM (≈ 0.0651 µg/mL).
